Measured values reported in patent publication US12365696B2, “Small-molecule focal adhesion kinase (FAK) inhibitors” (DANA-FARBER CANCER INSTITUTE, INC., priority 2019, dated 2025).

Columns and labels:
Test in all cases: KINOMEscan
Format in all cases: binding
CHEK2 = CHEK2 (Homo sapiens (Human), UniProt O96017); conditions: CHEK2, 10000 nM; read-out: Percent Control
NEK4 = NEK4 (Homo sapiens (Human), UniProt P51957); conditions: NEK4, 10000 nM; read-out: Percent Control
SRC = SRC (Homo sapiens (Human), UniProt P12931); conditions: 10000 nM, read-out: Percent Control
DAPK2 = DAPK2 (Homo sapiens (Human), UniProt Q9UIK4); conditions: DAPK2, 10000 nM; read-out: Percent Control
SNARK = SNARK (Homo sapiens (Human), UniProt Q9H093); conditions: 10000 nM, read-out: Percent Control
CSNK1G3 = CSNK1G3 (Homo sapiens (Human), UniProt Q9Y6M4); conditions: CSNK1G3, 10000 nM; read-out: Percent Control
FES = FES (Homo sapiens (Human), UniProt P07332); conditions: 10000 nM, read-out: Percent Control
CSF1R = CSF1R (Homo sapiens (Human), UniProt P07333); conditions: 10000 nM, read-out: Percent Control
KIT(D816H) = KIT(D816H) (Homo sapiens (Human), UniProt P10721, D816H); conditions: 10000 nM, read-out: Percent Control
LIMK2 = LIMK2 (Homo sapiens (Human), UniProt P53671); conditions: LIMK2, 10000 nM; read-out: Percent Control
PDPK1 = PDPK1 (Homo sapiens (Human), UniProt O15530); conditions: PDPK1, 10000 nM; read-out: Percent Control
AURKB = AURKB (Homo sapiens (Human), UniProt Q96GD4); conditions: 10000 nM, read-out: Percent Control
EGFR(S752-I759del) = EGFR(S752-I759del) (Homo sapiens (Human), UniProt P00533, DEL752-759); conditions: 10000 nM, read-out: Percent Control
CSNK1G1 = CSNK1G1 (Homo sapiens (Human), UniProt Q9HCP0); conditions: CSNK1G1, 10000 nM; read-out: Percent Control
[1] = target: JAK1(JH1domain-catalytic) (Homo sapiens (Human), UniProt P23458); conditions: 10000 nM, read-out: Percent Control
AKT3 = AKT3 (Homo sapiens (Human), UniProt Q9Y243); conditions: AKT3, 10000 nM; read-out: Percent Control
TSSK1B = TSSK1B (Homo sapiens (Human), UniProt Q9BXA7); conditions: 10000 nM, read-out: Percent Control
FLT4 = FLT4 (Homo sapiens (Human), UniProt P35916); conditions: FLT4, 10000 nM; read-out: Percent Control
EGFR(G719C) = EGFR(G719C) (Homo sapiens (Human), UniProt P00533, G719C); conditions: 10000 nM, read-out: Percent Control
ULK3 = ULK3 (Homo sapiens (Human), UniProt Q6PHR2); conditions: ULK3, 10000 nM; read-out: Percent Control
KIT-autoinhibited = KIT-autoinhibited (Homo sapiens (Human), UniProt P10721); conditions: 10000 nM, read-out: Percent Control
[2] = target: ABL1(E255K)-phosphorylated (Homo sapiens (Human), UniProt P00519, E255K); conditions: 10000 nM, read-out: Percent Control
PDGFRA = PDGFRA (Homo sapiens (Human), UniProt P16234); conditions: 10000 nM, read-out: Percent Control
PIK3CA(E542K) = PIK3CA(E542K) (Homo sapiens (Human), UniProt P42336, E542K); conditions: 10000 nM, read-out: Percent Control
PIK3C2G = PIK3C2G (Homo sapiens (Human), UniProt O75747); conditions: 10000 nM, read-out: Percent Control
WNK4 = WNK4 (Homo sapiens (Human), UniProt Q96J92); conditions: WNK4, 10000 nM; read-out: Percent Control
JNK2 = JNK2 (Homo sapiens (Human), UniProt P45984); conditions: JNK2, 10000 nM; read-out: Percent Control
ALK(L1196M) = ALK(L1196M) (Homo sapiens (Human), UniProt Q9UM73, L1196M); conditions: 10000 nM, read-out: Percent Control
CDKL2 = CDKL2 (Homo sapiens (Human), UniProt Q92772); conditions: CDKL2, 10000 nM; read-out: Percent Control
DDR2 = DDR2 (Homo sapiens (Human), UniProt Q16832); conditions: DDR2, 10000 nM; read-out: Percent Control
DCAMKL3 = DCAMKL3 (Homo sapiens (Human), UniProt Q9C098); conditions: DCAMKL3, 10000 nM; read-out: Percent Control
TNIK = TNIK (Homo sapiens (Human), UniProt Q9UKE5); conditions: 10000 nM, read-out: Percent Control
TTK = TTK (Homo sapiens (Human), UniProt P33981); conditions: 10000 nM, read-out: Percent Control
CDK8 = CDK8 (Homo sapiens (Human), UniProt P49336); conditions: CDK8, 10000 nM; read-out: Percent Control
PAK2 = PAK2 (Homo sapiens (Human), UniProt Q13177); conditions: PAK2, 10000 nM; read-out: Percent Control

Chain of SNARK (Q9H093 whole entry): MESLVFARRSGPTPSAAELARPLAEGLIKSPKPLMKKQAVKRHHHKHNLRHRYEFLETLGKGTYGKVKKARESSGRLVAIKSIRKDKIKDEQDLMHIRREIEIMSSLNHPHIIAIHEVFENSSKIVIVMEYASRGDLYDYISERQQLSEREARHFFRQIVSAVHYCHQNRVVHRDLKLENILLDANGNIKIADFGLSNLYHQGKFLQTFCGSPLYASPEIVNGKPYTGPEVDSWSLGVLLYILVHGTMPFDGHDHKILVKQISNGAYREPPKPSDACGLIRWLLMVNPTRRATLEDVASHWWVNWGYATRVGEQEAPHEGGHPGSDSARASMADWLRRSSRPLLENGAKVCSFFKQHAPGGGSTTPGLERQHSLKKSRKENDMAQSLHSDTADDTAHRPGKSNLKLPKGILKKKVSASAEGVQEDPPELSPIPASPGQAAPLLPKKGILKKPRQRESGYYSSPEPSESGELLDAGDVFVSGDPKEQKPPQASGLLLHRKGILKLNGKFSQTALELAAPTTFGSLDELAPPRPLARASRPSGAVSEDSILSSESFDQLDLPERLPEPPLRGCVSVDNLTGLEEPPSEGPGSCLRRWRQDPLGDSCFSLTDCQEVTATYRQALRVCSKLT
Chain of PDGFRA (P16234 24-1089): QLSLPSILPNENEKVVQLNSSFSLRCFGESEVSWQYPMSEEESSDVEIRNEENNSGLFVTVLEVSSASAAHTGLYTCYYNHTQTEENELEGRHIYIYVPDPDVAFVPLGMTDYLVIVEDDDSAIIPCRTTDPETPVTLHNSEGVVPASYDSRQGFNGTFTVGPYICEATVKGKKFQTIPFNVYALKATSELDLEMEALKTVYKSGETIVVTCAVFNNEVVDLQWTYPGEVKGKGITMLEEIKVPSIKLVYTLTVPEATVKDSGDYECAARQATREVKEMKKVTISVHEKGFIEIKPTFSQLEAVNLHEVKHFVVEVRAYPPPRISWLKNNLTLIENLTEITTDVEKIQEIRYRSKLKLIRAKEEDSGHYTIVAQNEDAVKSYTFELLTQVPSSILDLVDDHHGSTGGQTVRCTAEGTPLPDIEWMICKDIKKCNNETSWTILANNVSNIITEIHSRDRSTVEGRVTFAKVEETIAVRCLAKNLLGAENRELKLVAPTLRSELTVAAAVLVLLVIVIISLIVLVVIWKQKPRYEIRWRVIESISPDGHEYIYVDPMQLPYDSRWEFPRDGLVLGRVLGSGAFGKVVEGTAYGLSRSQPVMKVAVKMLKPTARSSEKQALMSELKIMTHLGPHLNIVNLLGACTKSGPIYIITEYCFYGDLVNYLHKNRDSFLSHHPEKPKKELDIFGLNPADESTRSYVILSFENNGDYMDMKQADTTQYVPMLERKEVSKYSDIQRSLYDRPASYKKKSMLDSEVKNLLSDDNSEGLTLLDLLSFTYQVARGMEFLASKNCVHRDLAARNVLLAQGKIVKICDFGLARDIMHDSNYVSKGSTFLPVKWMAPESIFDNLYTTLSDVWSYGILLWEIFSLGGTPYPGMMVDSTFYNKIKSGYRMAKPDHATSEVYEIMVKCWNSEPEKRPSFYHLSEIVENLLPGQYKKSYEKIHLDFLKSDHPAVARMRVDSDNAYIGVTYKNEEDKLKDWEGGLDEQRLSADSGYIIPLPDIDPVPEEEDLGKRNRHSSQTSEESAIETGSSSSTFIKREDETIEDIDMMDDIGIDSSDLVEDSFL
Chain of SRC (P12931 whole entry, looked up): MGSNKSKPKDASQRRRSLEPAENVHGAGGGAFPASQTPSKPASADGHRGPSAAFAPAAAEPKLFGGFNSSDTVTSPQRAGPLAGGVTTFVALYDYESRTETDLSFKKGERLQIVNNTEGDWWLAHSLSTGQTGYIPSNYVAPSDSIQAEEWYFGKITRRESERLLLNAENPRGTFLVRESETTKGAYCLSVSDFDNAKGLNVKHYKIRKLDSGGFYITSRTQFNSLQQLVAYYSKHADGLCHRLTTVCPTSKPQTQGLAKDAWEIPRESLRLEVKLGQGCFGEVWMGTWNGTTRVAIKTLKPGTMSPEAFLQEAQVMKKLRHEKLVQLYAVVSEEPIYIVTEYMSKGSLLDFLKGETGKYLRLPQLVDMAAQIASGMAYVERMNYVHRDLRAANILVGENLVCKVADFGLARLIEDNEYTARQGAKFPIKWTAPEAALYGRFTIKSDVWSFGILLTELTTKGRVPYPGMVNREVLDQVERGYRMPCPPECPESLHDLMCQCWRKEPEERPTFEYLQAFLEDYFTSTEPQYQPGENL
Chain of FES (P07332 whole entry): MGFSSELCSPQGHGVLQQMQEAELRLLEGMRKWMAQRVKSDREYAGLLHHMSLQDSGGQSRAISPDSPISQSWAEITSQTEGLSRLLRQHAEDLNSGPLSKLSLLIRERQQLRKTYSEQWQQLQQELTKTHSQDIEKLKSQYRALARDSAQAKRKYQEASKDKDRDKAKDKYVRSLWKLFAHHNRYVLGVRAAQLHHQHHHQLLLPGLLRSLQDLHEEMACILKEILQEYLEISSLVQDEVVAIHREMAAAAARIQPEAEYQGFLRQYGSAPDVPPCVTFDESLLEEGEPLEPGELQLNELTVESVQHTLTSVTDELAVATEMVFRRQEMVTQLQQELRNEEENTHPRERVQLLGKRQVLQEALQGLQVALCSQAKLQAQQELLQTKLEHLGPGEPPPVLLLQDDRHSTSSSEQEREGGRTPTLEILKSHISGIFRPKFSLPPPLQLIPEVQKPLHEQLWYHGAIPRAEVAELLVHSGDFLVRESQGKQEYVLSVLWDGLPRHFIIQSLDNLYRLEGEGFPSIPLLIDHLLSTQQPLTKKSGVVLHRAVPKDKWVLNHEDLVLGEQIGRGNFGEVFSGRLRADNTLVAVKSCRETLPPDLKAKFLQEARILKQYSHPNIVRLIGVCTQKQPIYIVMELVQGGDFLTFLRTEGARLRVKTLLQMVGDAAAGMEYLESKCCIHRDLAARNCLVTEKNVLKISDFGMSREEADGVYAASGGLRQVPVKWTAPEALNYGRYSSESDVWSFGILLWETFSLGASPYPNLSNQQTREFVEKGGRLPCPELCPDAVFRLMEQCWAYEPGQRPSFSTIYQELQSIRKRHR
Chain of EGFR(S752-I759del) (P00533 other isoform, or with tags, fused parts or gaps, stated change not applied): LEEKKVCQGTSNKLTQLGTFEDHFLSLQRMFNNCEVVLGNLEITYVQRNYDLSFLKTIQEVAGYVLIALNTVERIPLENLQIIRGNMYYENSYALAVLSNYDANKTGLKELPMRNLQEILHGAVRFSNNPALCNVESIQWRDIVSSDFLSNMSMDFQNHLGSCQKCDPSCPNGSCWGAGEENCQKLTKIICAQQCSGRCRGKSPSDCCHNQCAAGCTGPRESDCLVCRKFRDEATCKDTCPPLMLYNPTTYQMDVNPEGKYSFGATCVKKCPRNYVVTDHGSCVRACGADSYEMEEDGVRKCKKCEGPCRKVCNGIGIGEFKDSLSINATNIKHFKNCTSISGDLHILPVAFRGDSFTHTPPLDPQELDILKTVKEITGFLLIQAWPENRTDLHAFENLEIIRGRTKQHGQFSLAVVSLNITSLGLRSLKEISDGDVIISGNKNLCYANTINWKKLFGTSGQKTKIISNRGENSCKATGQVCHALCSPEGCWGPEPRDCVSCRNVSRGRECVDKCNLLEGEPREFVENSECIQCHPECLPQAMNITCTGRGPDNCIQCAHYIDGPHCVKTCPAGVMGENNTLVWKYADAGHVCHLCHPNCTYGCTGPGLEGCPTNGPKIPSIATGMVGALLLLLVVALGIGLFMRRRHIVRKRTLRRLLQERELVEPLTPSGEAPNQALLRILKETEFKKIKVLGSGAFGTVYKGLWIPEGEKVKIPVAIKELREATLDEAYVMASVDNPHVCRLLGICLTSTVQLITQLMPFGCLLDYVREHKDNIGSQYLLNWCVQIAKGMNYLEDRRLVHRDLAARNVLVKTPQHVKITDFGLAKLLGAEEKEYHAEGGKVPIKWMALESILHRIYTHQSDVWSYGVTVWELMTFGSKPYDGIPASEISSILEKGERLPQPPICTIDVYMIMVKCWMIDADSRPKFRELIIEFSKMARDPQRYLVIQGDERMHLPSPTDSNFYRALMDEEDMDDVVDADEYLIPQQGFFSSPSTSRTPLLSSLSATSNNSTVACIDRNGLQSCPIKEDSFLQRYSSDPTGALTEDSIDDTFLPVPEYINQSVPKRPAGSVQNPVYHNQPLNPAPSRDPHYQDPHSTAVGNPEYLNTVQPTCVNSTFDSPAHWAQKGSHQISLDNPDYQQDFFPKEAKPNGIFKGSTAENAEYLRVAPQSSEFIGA
Chain of CDK8 (P49336 whole entry): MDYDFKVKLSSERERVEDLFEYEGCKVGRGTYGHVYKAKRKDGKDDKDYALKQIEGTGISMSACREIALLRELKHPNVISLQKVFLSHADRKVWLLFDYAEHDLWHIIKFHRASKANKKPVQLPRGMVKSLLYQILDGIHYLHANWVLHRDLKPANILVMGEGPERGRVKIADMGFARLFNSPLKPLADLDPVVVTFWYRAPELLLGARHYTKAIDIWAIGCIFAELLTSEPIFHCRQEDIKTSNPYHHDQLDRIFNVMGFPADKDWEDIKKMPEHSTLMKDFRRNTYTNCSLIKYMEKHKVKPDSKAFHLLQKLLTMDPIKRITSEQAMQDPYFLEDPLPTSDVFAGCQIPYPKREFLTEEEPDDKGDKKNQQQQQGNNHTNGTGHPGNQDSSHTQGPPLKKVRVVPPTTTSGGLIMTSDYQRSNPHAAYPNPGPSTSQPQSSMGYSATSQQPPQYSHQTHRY
Chain of TSSK1B (Q9BXA7 whole entry): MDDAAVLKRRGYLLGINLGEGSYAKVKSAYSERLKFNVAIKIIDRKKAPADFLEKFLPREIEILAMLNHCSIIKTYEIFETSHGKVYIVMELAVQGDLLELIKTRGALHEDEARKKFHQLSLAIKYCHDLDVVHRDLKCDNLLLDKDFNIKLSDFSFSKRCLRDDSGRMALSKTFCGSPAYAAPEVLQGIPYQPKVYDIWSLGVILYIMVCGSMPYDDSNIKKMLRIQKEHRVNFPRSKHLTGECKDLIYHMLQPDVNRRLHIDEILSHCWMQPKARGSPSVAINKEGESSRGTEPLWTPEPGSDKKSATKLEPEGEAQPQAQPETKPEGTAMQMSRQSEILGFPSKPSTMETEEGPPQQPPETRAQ

COc1cc(N2CCC(N3CCN(C)CC3)CC2)ccc1Nc1ncc2c(n1)N(C)c1sc(C)nc1C(=O)N2 [Compound 3, 6-((2-methoxy-4-(4-(4-methylpiperazin-1-yl)piperidin-1-yl)phenyl)amino)-2,4-dimethyl-4,9-dihydro-10H-pyrimido[5,4-b]thiazolo[5,4-e][1,4]diazepin-10-one]
remaining binding at 10 µM (CHEK2): 72%
remaining binding at 10 µM (NEK4): 100%
remaining binding at 10 µM (SRC): 63%
remaining binding at 10 µM (DAPK2): 60%
remaining binding at 10 µM (SNARK): 100%
remaining binding at 10 µM (CSNK1G3): 87%
remaining binding at 10 µM (FES): 81%
remaining binding at 10 µM (CSF1R): 36%
remaining binding at 10 µM (KIT(D816H)): 22%
remaining binding at 10 µM (LIMK2): 91%
remaining binding at 10 µM (PDPK1): 76%
remaining binding at 10 µM (AURKB): 100%
remaining binding at 10 µM (EGFR(S752-I759del)): 47%
remaining binding at 10 µM (CSNK1G1): 86%
remaining binding at 10 µM [1]: 85%
remaining binding at 10 µM (AKT3): 100%
remaining binding at 10 µM (TSSK1B): 74%
remaining binding at 10 µM (FLT4): 92%
remaining binding at 10 µM (EGFR(G719C)): 34%
remaining binding at 10 µM (ULK3): 95%
remaining binding at 10 µM (KIT-autoinhibited): 100%
remaining binding at 10 µM [2]: 17%
remaining binding at 10 µM (PDGFRA): 100%
remaining binding at 10 µM (PIK3CA(E542K)): 100%
remaining binding at 10 µM (PIK3C2G): 69%
remaining binding at 10 µM (WNK4): 100%
remaining binding at 10 µM (JNK2): 100%
remaining binding at 10 µM (ALK(L1196M)): 80%
remaining binding at 10 µM (CDKL2): 75%
remaining binding at 10 µM (DDR2): 100%
remaining binding at 10 µM (DCAMKL3): 81%
remaining binding at 10 µM (TNIK): 94%
remaining binding at 10 µM (TTK): 51%
remaining binding at 10 µM (CDK8): 78%
remaining binding at 10 µM (PAK2): 72%

COc1cc(N2CCC(N3CCN(C)CC3)CC2)ccc1Nc1ncc2c(n1)N(C)c1sc(C)nc1C(=O)N2C [Compound 5, 6-((2-methoxy-4-(4-(4-methylpiperazin-1-yl)piperidin-1-yl)phenyl)amino)-2,4,9-trimethyl-4,9-dihydro-10H-pyrimido[5,4-b]thiazolo[5,4-e][1,4]diazepin-10-one]
remaining binding at 10 µM (CHEK2): 100%
remaining binding at 10 µM (NEK4): 100%
remaining binding at 10 µM (SRC): 100%
remaining binding at 10 µM (DAPK2): 83%
remaining binding at 10 µM (SNARK): 91%
remaining binding at 10 µM (CSNK1G3): 100%
remaining binding at 10 µM (FES): 97%
remaining binding at 10 µM (CSF1R): 80%
remaining binding at 10 µM (KIT(D816H)): 100%
remaining binding at 10 µM (LIMK2): 98%
remaining binding at 10 µM (PDPK1): 96%
remaining binding at 10 µM (AURKB): 99%
remaining binding at 10 µM (EGFR(S752-I759del)): 100%
remaining binding at 10 µM (CSNK1G1): 97%
remaining binding at 10 µM [1]: 100%
remaining binding at 10 µM (AKT3): 100%
remaining binding at 10 µM (TSSK1B): 68%
remaining binding at 10 µM (FLT4): 100%
remaining binding at 10 µM (EGFR(G719C)): 100%
remaining binding at 10 µM (ULK3): 97%
remaining binding at 10 µM (KIT-autoinhibited): 100%
remaining binding at 10 µM [2]: 100%
remaining binding at 10 µM (PDGFRA): 88%
remaining binding at 10 µM (PIK3CA(E542K)): 93%
remaining binding at 10 µM (PIK3C2G): 100%
remaining binding at 10 µM (WNK4): 100%
remaining binding at 10 µM (JNK2): 98%
remaining binding at 10 µM (ALK(L1196M)): 79%
remaining binding at 10 µM (CDKL2): 95%
remaining binding at 10 µM (DDR2): 100%
remaining binding at 10 µM (DCAMKL3): 86%
remaining binding at 10 µM (TNIK): 99%
remaining binding at 10 µM (TTK): 6.9%
remaining binding at 10 µM (CDK8): 100%
remaining binding at 10 µM (PAK2): 89%
